The subject of assay [1] is HEK293 cells. As to the kind of experiment: Preliminary screening as mRNA vectors, EGFP mRNA transfection of HEK293 cells. It counts as cell-based. The settings on record: HEK293 cells, 96-well plates, EGFP mRNA 50 ng per well; percentage of GFP fluorescent cells relative to total number of cells (Hoechst). The essentials: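 HEK293 cells in DMEM plus 10% FBS transfected in 96-well format with 50 ng EGFP mRNA per well; Lipofectamine2000 served as positive control. Read-out is the percentage of GFP-fluorescent cells among total cells, counted by Hoechst nuclear stain.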

Assay [2] concerns HEK293 cells. The assay is described as follows: Preliminary screening as DNA vectors, GFP transfection of HEK293 cells. Format: cell-based. The settings on record: HEK293 cells; lipid/DOPE liposome with 75 ng plasmid DNA (psin-EGFP-IRES-Puro); number of cells expressing GFP divided by total number of nuclei (Hoechst). The essentials: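 HEK293 cells in DMEM/10% FBS transfected with 75 ng EGFP plasmid per well complexed with amino lipid/DOPE liposomes in pH 5.6 sodium acetate. Hoechst nuclear stain added 20-24 h post-transfection, then cells cultured another 20-24 h. Confocal imaging gives GFP-positive cells as % of total nuclei.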

For `CCCCCCCCCCCCCCCSc1nc(NCCCN2CCN(C)CC2)nc(SCCCCCCCCCC)n1` [Compound S10S15D9], the “Absolute mRNA transfection efficiency in HEK293 cells” value (“Absolute mRNA transfection efficiency” below) in assay [1] is given as 3.8%. In addition, the “Absolute DNA transfection efficiency in HEK293 cells” value (“Absolute DNA transfection efficiency” below) in assay [2] was 3.9%.

Turning to `CCCCCCCCCCCCCCCSc1nc(NCC2CCN(C)CC2)nc(SCCCCCCCCCC)n1` [Compound S10S15D10], the “Absolute mRNA transfection efficiency” value in assay [1] worked out at 19.4%. In addition, the “Absolute DNA transfection efficiency” value in assay [2] is recorded as 55.8%.

On to `CCCCCCCCCCCCCCCCSc1nc(NCCN(C)C)nc(SCCCCCCCCCC)n1` [Compound S10S16D1], for which the “Absolute mRNA transfection efficiency” value in assay [1] stood at 0.1%. Moreover, the “Absolute DNA transfection efficiency” value in assay [2] was found to be 7.2%.

With `CCCCCCCCCCCCCCCCSc1nc(NCCN2CCOCC2)nc(SCCCCCCCCCC)n1` [Compound S10S16D2], in assay [1], the “Absolute mRNA transfection efficiency” value was found to be 0.3%. Also, in assay [2], the “Absolute DNA transfection efficiency” value worked out at 0.1%.

Turning to `CCCCCCCCCCCCCCCCSc1nc(NCCN2CCCC2)nc(SCCCCCCCCCC)n1` [Compound S10S16D3], the “Absolute mRNA transfection efficiency” value in assay [1] was 1.7%. The “Absolute DNA transfection efficiency” value in assay [2] is given as 9.5%.

With `CCCCCCCCCCCCCCCCSc1nc(NCCN2CCCCC2)nc(SCCCCCCCCCC)n1` [Compound S10S16D4], in assay [1], the “Absolute mRNA transfection efficiency” value is 0.8%. For the same compound, in assay [2], the “Absolute DNA transfection efficiency” value stood at 9.1%.

Regarding `CCCCCCCCCCCCCCCCSc1nc(NCCN2CCN(C)CC2)nc(SCCCCCCCCCC)n1` [Compound S10S16D5], in assay [1], the “Absolute mRNA transfection efficiency” value came to 13.6%. The “Absolute DNA transfection efficiency” value in assay [2] worked out at 9.4%.

For the compound `CCCCCCCCCCCCCCCCSc1nc(NCCCN(C)C)nc(SCCCCCCCCCC)n1` [Compound S10S16D6], the “Absolute mRNA transfection efficiency” value in assay [1] is recorded as 41.6%. In assay [2], the “Absolute DNA transfection efficiency” value is 14.1%.

On to `CCCCCCCCCCCCCCCCSc1nc(NCCN(CC)CC)nc(SCCCCCCCCCC)n1` [Compound S10S16D7], for which the “Absolute mRNA transfection efficiency” value in assay [1] was 0.7%. Moreover, the “Absolute DNA transfection efficiency” value in assay [2] is given as 3.1%.

On to `CCCCCCCCCCCCCCCCSc1nc(NCCCN2CCOCC2)nc(SCCCCCCCCCC)n1` [Compound S10S16D8], for which the “Absolute mRNA transfection efficiency” value in assay [1] stood at 4.0%. The “Absolute DNA transfection efficiency” value in assay [2] turned out to be 15.7%.

Turning to `CCCCCCCCCCCCCCCCSc1nc(NCCCN2CCN(C)CC2)nc(SCCCCCCCCCC)n1` [Compound S10S16D9], the “Absolute mRNA transfection efficiency” value in assay [1] is 19.9%. Further, the “Absolute DNA transfection efficiency” value in assay [2] is 7.8%.

Consider `CCCCCCCCCCCCCCCCCCSc1nc(NCCN(C)C)nc(SCCCCCCCCCC)n1` [Compound S10S18D1], for which, in assay [1], the “Absolute mRNA transfection efficiency” value is given as 3.5%. Moreover, the “Absolute DNA transfection efficiency” value in assay [2] is recorded as 9.9%.

Turning to `CCCCCCCCCCCCCCCCCCSc1nc(NCCN2CCOCC2)nc(SCCCCCCCCCC)n1` [Compound S10S18D2], in assay [1], the “Absolute mRNA transfection efficiency” value is listed as 0.2%. Further, the “Absolute DNA transfection efficiency” value in assay [2] was determined as 1.6%.

For `CCCCCCCCCCCCCCCCCCSc1nc(NCCN2CCCC2)nc(SCCCCCCCCCC)n1` [Compound S10S18D3], the “Absolute mRNA transfection efficiency” value in assay [1] turned out to be 21.5%. Also, in assay [2], the “Absolute DNA transfection efficiency” value is on record as 11.1%.

On to `CCCCCCCCCCCCCCCCCCSc1nc(NCCN2CCCCC2)nc(SCCCCCCCCCC)n1` [Compound S10S18D4], for which the “Absolute mRNA transfection efficiency” value in assay [1] came out at 6.2%. Besides, the “Absolute DNA transfection efficiency” value in assay [2] is 6.7%.

Regarding `CCCCCCCCCCCCCCCCCCSc1nc(NCCN2CCN(C)CC2)nc(SCCCCCCCCCC)n1` [Compound S10S18D5], the “Absolute mRNA transfection efficiency” value in assay [1] is 3.5%. In addition, the “Absolute DNA transfection efficiency” value in assay [2] came out at 3.7%.

On to `CCCCCCCCCCCCCCCCCCSc1nc(NCCCN(C)C)nc(SCCCCCCCCCC)n1` [Compound S10S18D6], for which the “Absolute mRNA transfection efficiency” value in assay [1] worked out at 19.9%. Besides, the “Absolute DNA transfection efficiency” value in assay [2] worked out at 22.4%.

Take `CCCCCCCCCCCCCCCCCCSc1nc(NCCN(CC)CC)nc(SCCCCCCCCCC)n1` [Compound S10S18D7]: in assay [1], the “Absolute mRNA transfection efficiency” value is listed as 0.3%. Further, the “Absolute DNA transfection efficiency” value in assay [2] was found to be 9.2%.

Turning to `CCCCCCCCCCCCCCCCCCSc1nc(NCCCN2CCOCC2)nc(SCCCCCCCCCC)n1` [Compound S10S18D8], in assay [1], the “Absolute mRNA transfection efficiency” value is 8.0%. Moreover, the “Absolute DNA transfection efficiency” value in assay [2] came to 13.7%.

With `CCCCCCCCCCCCCCCCCCSc1nc(NCCCN2CCN(C)CC2)nc(SCCCCCCCCCC)n1` [Compound S10S18D9], the “Absolute mRNA transfection efficiency” value in assay [1] is 2.4%. In addition, in assay [2], the “Absolute DNA transfection efficiency” value stood at 6.5%.

With `CCCCCCCCCCCCCCCCCCSc1nc(NCC2CCN(C)CC2)nc(SCCCCCCCCCC)n1` [Compound S10S18D10], the “Absolute mRNA transfection efficiency” value in assay [1] is given as 54.6%. Moreover, the “Absolute DNA transfection efficiency” value in assay [2] came out at 43.1%.

Take `CCCCCCCCCCCSc1nc(NCCN(C)C)nc(SCCCCCCCCCCC)n1` [Compound S11S11D1]: in assay [1], the “Absolute mRNA transfection efficiency” value turned out to be 12.9%. In assay [2], the “Absolute DNA transfection efficiency” value came out at 1.3%.

Consider `CCCCCCCCCCCSc1nc(NCCN2CCOCC2)nc(SCCCCCCCCCCC)n1` [Compound S11S11D2], for which, in assay [1], the “Absolute mRNA transfection efficiency” value was 0.0%. In addition, the “Absolute DNA transfection efficiency” value in assay [2] was 0.2%.

`CCCCCCCCCCCSc1nc(NCCN2CCCC2)nc(SCCCCCCCCCCC)n1` [Compound S11S11D3]: the “Absolute mRNA transfection efficiency” value in assay [1] is 3.6%. Further, the “Absolute DNA transfection efficiency” value in assay [2] came to 6.5%.

In the case of `CCCCCCCCCCCSc1nc(NCCN2CCCCC2)nc(SCCCCCCCCCCC)n1` [Compound S11S11D4], the “Absolute mRNA transfection efficiency” value in assay [1] worked out at 0.4%. In addition, the “Absolute DNA transfection efficiency” value in assay [2] is on record as 4.0%.

As to `CCCCCCCCCCCSc1nc(NCCN2CCN(C)CC2)nc(SCCCCCCCCCCC)n1` [Compound S11S11D5], the “Absolute mRNA transfection efficiency” value in assay [1] is reported as 28.7%. Further, the “Absolute DNA transfection efficiency” value in assay [2] was 3.4%.

Regarding `CCCCCCCCCCCSc1nc(NCCCN(C)C)nc(SCCCCCCCCCCC)n1` [Compound S11S11D6], in assay [1], the “Absolute mRNA transfection efficiency” value stood at 25.4%. In assay [2], the “Absolute DNA transfection efficiency” value is given as 10.9%.

Take `CCCCCCCCCCCSc1nc(NCCN(CC)CC)nc(SCCCCCCCCCCC)n1` [Compound S11S11D7]: in assay [1], the “Absolute mRNA transfection efficiency” value was found to be 0.0%. In addition, the “Absolute DNA transfection efficiency” value in assay [2] was 0.0%.

For the compound `CCCCCCCCCCCSc1nc(NCCCN2CCOCC2)nc(SCCCCCCCCCCC)n1` [Compound S11S11D8], the “Absolute mRNA transfection efficiency” value in assay [1] came out at 1.4%. Also, the “Absolute DNA transfection efficiency” value in assay [2] turned out to be 3.6%.

For `CCCCCCCCCCCSc1nc(NCCCN2CCN(C)CC2)nc(SCCCCCCCCCCC)n1` [Compound S11S11D9], in assay [1], the “Absolute mRNA transfection efficiency” value was 8.0%. In addition, the “Absolute DNA transfection efficiency” value in assay [2] amounted to 4.3%.

For `CCCCCCCCCCCSc1nc(NCC2CCN(C)CC2)nc(SCCCCCCCCCCC)n1` [Compound S11S11D10], the “Absolute mRNA transfection efficiency” value in assay [1] was found to be 13.7%. Moreover, the “Absolute DNA transfection efficiency” value in assay [2] stood at 12.2%.

For `CCCCCCCCCCCCSc1nc(NCCN(C)C)nc(SCCCCCCCCCCC)n1` [Compound S11S12D1], the “Absolute mRNA transfection efficiency” value in assay [1] was found to be 4.7%. Also, the “Absolute DNA transfection efficiency” value in assay [2] is 2.3%.
